Data on five molecules can be found in patent US20230075584A1, “INTRANASAL ADMINISTRATION OF GLUTAMATE CARBOXYPEPTIDASE (GCP-II) INHIBITORS” (The Johns Hopkins University, priority 2015, published 2023).

Values joined by “and” are separate entries in the source; they are usually repeats but may differ in a detail not shown here. Identical values can stand only once. “Also recorded” adds a separate entry of the source. Like-named read-outs stand apart in the source and are kept apart here.

For series [1] the following is noted: non-human primates; halted development; cited from earlier work.
For series [2] the following is noted: purified enantiomers, intranasal. The protocol: Rodent i.n. and i.p. dosing: Studies were conducted in male Wistar rats (6-8 weeks; weighing between 200 gm to 250 gm) obtained from Harlan® Laboratories (Indianapolis, Ind.) that were maintained in a controlled environment and allowed food and water ad libitum. Intranasal administrations were performed according to previously described methods with minor modifications. Briefly, rats were anesthetized with a 1-1.5 mL intraperitoneal (i.p.) dose of 10% chloral hydrate (approved under the protocol RA #13), and kept under anesthesia with additional chloral hydrate as needed throughout the entire experiment. To prevent drainage of nasally dosed solution, the nasal cavity was isolated from the respiratory and gastrointestinal tracts. An incision was made along the neck, and the trachea isolated and transected. The upper part was tied off with a 3-0 silk suture, and the lower part cannulated with PE240 tubing to aid air breathing. Rats were maintained lying on their back, and in this position, given 10 μL (375 mg/mL) of the experimental drug solution per nostril using a micro-syringe connected to 1.5 cm PE-10 tube. The total dose received was 30 mg/kg for each drug solution.
Briefly, prior to extraction, frozen samples were thawed on ice. For plasma samples, 50 μL of the calibration standard or sample were transferred into silanized vials. For brain tissues, the samples were weighed in a 1.7 mL silanized vials to which 4 times the volume of methanol (dilution 1:5) was added. The tissues were stored in −20° C. for 1 h and then homogenized. The calibration curves were developed using plasma and brain from untreated animals as a matrix. For plasma, sample preparation involved a single liquid extraction by addition of 300 μL of methanol as extraction solution with internal standard, followed by vortexing for 30 s and then centrifugation at 12000×g for 10 min. Supernatant was transferred and evaporated to dryness at 40° C. under a gentle stream of nitrogen. For brain tissue, homogenized samples were vortexed and centrifuged as above, and 100 μL supernatant was mixed with 100 μL of internal standard in methanol, and then evaporated to dryness at 40° C. under a gentle stream of nitrogen. […] For derivatization, the residue was reconstituted with 100 μL of n-butanol with 3N HCl and samples were vortexed. The samples were heated at 60° C. in a shaking water bath for 30 min. At the end of 30 min, the derivatized samples were dried under a gentle stream of nitrogen. […] The samples were vortexed and centrifuged. Supernatant (75 μL) was transferred to a 250 μL polypropylene autosampler vial sealed with a Teflon cap and a volume of 10 μL was injected onto the ultral l performance liquid chromatography (UPLC) instrument for quantitative analysis using a temperature-controlled autosampler operating at 10° C.
Chromatographic analysis was performed using an Accela™ ultra high-performance system consisting of an analytical pump, and an autosampler coupled with TSQ Vantage mass spectrometer (Thermo Fisher Scientific Inc., Waltham Mass.). […] The mobile phase was composed of 0.1% formic acid in acetonitrile and 0.1% formic acid in H2O with gradient elution. The total run time for each analyte was 5.0 min.

The nature of series [3]: Plasma and CSF exposure after i.n. administration in non-human primate. The conditions noted are these: cynomolgus monkey, 30 min post dose.
Description: A male cynomolgus monkey (approximately 3.5 kg, non-drug naive) was housed in a stainless steel cage (size 30″ (76.2 cm) wide×31″ (78.74 cm) deep×31.5″ (80.01 cm) high) maintaining temperature of 64-84° F. (17.8° C.-28.9° C.), humidity of 30-70% with alternating 12-hour light/dark cycle as per the USDA Animal Welfare Act (9 CFR, Parts 1, 2, and 3).
The monkey was sedated with 45 mg of ketamine and 0.25 mg of midazolam given as an intramuscular injection prior to test article administration. Sedation was maintained through blood and cerebrospinal fluid (CSF) sample collections with ketamine/midazolam at a starting rate of 20 mg/kg/hr ketamine and 0.4 mg/kg/hr midazolam. […] The device was actuated for a period of 2 min in one nostril (depositing 100 μL). The nose piece was cleaned with a mist of air and then the same procedure was performed in the second nostril (100 μL). Total dose delivered was 100 mg. CSF sample (target of 50 μL) was obtained by an indwelling cannula placed in the intrathecal space at the cisterna magna at 0.5 h post dose. Blood was collected via venipuncture of the femoral vein at 0.5 h post dose and plasma was obtained by low speed centrifugation at 1500×g for 10 minutes. The plasma was flash-frozen on dry ice after separation. Plasma and CSF samples were stored in a freezer set at −70° C., until bioanalysis.
Standard curves were generated in blank artificial CSF. Calibration curves were constructed in the range of 0.113-22.6 μg/mL. Samples were analyzed on Agilent QTOF mass spectrometer by LC/MS. Samples (20 μL) were injected and separated on an Agilent 1290 LC equipped with an Agilent Eclipse Plus C18 column (2.1×100 mm) packed with 1.8 micron stationary phase. The mobile phase consisted of 0.1% formic acid in water and 0.1% formic acid in acetonitrile with an isocratic elution at 2.5% organic. […] Calibration curves were generated with a correlation coefficient >0.99 in a similar manner as described above.
Series [4] can be described thus: Brain concentrations 1 h after intranasal administration in rats (single time point). It is filed as in vivo. The conditions noted are these: rat, 30 mg/kg i.n., 1 hr post dose; for concentration at 1 h: male, Wistar, in vivo, 30 mg/kg.
A short description of series [5]: Pharmacokinetics of i.p. versus i.n. administered 2-PMPA in rat plasma and brain tissues. It is filed as in vivo. The protocol: For i.p. studies, 2-PMPA was administered as a single i.p. dose. All dosing solutions were prepared on the day of the experiment in 50 mM HEPES buffered saline, and pH adjusted to 7.4 before injection. At various time points following drug administration (0.16 h, 0.5 h, 1 h, 3 h, 5 h) post dose, animals (n=3 per time point, except 3 h n=2 animals) were euthanized with CO2, and blood samples were collected in heparinized microtubes by cardiac puncture and tissues (olfactory bulb, frontal cortex, and cerebellum) were dissected and immediately flash frozen (−80° C.). Plasma was prepared by centrifugation immediately after collection of blood samples. All samples were stored in −80° C. until bioanalysis.
The samples were vortexed and centrifuged.
The maximum plasma concentration (Cmax) and time to Cmax (Tmax) were the observed values. The area under the plasma concentration time curve (AUC) value was calculated to the last quantifiable sample (AUClast) by use of the log linear trapezoidal rule. The brain-to-plasma partition coefficients were calculated as a ratio of their AUCs (AUC0-t, brain/AUC0-t, plasma). The elimination half-life (t1/2) was determined by dividing 0.693 by λz.

A further series concerns the target T1, GCP-II (Rattus norvegicus, UniProt P70627).
T1 construct: from tissue; host or cells: rat brain (olfactory bulb, cortex, cerebellum), sonicated in Tris buffer, supernatant
Briefly: Ex vivo GCP-II enzymatic (NAAG hydrolyzing) activity in rodent brain tissue after i.n. administration. The protocol:
Rodent ex vivo GCP-II enzymatic activity: One half of the brain tissues collected following i.n. administration (lh post dose) was used to determine GCP-II NAAG hydrolyzing activity. In brief, tissues were weighed and immersed in 0.5 mL of ice-cold 50 mM Tris Buffer (pH 7.7 at RT). Each tissue was sonicated for 30-60 seconds using an ultrasonic cell disrupter. After a 2 minute spin at 13,000 g, supernatants were analyzed for protein content and NAAG-hydrolyzing activity measurements were performed as previously described (Rojas et al., 2012; Robinson et al., 1987).

Series [6] in a line: Pharmacokinetics of i.p. versus i.n. administered 2-PMPA in rat plasma and brain tissues. Format: in vivo. Conditions: 30 mg/kg i.n.; for Kp: male, Wistar, other: intranasal, 30 mg/kg.
The target in series [7] is glutamate carboxypeptidase II (GCP-II) (Homo sapiens, UniProt Q04609). Conditions: GCP-II inhibition, Table 1; read-out: Potency (IC50); cited from earlier work.
glutamate carboxypeptidase II (GCP-II), sequence (Q04609 whole entry, species assumed): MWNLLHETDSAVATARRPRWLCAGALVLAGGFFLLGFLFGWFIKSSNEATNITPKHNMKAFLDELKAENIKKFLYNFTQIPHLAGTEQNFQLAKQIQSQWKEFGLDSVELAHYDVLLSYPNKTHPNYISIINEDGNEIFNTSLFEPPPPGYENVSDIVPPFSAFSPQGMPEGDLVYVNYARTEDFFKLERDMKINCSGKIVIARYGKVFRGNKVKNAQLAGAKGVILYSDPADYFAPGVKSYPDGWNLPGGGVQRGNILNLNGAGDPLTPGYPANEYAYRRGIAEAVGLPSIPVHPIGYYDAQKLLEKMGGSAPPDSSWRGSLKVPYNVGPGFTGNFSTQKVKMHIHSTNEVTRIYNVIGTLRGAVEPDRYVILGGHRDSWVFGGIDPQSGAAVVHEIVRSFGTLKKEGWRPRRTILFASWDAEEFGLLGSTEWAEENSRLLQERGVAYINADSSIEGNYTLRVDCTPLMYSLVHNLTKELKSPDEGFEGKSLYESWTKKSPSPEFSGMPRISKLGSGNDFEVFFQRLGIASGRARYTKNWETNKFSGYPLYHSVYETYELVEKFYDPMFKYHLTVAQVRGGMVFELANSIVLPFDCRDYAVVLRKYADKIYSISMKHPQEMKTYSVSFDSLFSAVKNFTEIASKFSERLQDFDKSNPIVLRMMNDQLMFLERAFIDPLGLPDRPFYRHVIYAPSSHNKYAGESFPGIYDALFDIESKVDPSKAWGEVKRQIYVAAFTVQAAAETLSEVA
The mark [8] stands for this setting: ex vivo, 1 h after 30 mg/kg i.n., relative to untreated control rats.

T1 sequence (P70627 whole entry): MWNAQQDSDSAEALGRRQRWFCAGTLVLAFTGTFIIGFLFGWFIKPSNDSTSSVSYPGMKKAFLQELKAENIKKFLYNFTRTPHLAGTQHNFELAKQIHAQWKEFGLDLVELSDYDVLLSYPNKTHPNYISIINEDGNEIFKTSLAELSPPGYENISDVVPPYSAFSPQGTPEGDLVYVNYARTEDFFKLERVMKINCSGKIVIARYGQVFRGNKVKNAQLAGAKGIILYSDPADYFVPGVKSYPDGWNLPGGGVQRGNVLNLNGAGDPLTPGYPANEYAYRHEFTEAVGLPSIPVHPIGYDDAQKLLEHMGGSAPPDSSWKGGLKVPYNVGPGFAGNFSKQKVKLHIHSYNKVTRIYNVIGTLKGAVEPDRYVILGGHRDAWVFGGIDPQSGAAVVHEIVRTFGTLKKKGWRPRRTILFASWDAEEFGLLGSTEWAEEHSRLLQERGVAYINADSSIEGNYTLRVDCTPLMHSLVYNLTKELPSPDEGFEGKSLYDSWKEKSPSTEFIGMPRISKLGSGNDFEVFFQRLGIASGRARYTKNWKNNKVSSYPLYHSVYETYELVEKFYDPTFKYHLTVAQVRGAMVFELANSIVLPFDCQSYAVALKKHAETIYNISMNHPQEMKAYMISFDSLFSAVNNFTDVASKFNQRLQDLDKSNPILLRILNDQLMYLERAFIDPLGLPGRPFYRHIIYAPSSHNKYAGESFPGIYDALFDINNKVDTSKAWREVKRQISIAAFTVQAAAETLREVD

Turning to `O=C(O)CCC(CCCS)C(=O)O` (stereo not shown) [2-MPPA, 2-(3-mercaptopropyl)pentane-dioic acid], the “toxicity observed in primate studies” value in series [1] was “membranoproliferative glomerular nephritis; also recorded: immunological toxicities”.
Turning to `O=C(O)CC[C@H](CP(=O)(O)O)C(=O)O` [S-2-PMPA], in series [2], the concentration in cerebellum worked out at 2.51 µg/g, the concentration in cortex stood at 10.4 µg/g and the “concentration in olfactory bulb” value worked out at 28.5 µg/g.
Consider `O=C(O)CC[C@@H](CP(=O)(O)O)C(=O)O` [R-2-PMPA], for which, in series [2], the concentration in cerebellum came out at 1.78 µg/g, the concentration in cortex worked out at 10.1 µg/g and the “concentration in olfactory bulb” value was determined as 19.3 µg/g.
Take `O=C(O)CCC(CP(=O)(O)O)C(=O)O` (racemic) [2-PMPA, 2-(phosphonomethyl)-pentanedioic acid]: in series [3] (i.n.), the “CSF concentration versus the IC50” value is greater than 100 fold. In addition, the concentration at 0.5 h in series [3] (male, CSF, other: intranasal, 100 mg, CSF concentration, 100 mg total i.n.) is 320 ng/mL and ~1.5 µM. In addition, in series [4] (read-out: concentration in cerebellum), the concentration at 1 h is 2130 ng/g. For the same molecule, in series [4] (read-out: concentration in cortex), the concentration at 1 h turned out to be 10300 ng/g. Moreover, in series [4] (read-out: concentration in olfactory bulb), the concentration at 1 h was 31200 ng/g. In series [5] (i.n. route, pooled plasma and brain data from i.p. and i.n.), the “share of 2-PMPA reaching the brain accounted from the plasma 2-PMPA” value was 2%. The Kp in series [5] (male, Wistar, rat, brain, intraperitoneal, 30 mg/kg, following systemic administration, read-out: brain-to-plasma ratio) is no more than 0.02. Further, the fold improvement in brain-to-plasma ratio, intranasal versus intraperitoneal in series [5] (male, Wistar, rat, brain, other: intranasal, 30 mg/kg, intranasal versus other route, read-out: improvement in the brain-to-plasma ratio when administered through an intranasal route) stood at 100. In series [5] (male, Wistar, rat, olfactory bulb, cortex and cerebellum, ip, 30 mg/kg, rat, 30 mg/kg i.p., olfactory bulb, cortex and cerebellum, read-out: brain tissue to plasma ratio based on AUCs (AUC0-t, brain/AUC0-t, plasma)), the Kp was less than 0.02. Besides, in series [5] (rat, 30 mg/kg i.n.), the AUC0-t cerebellum turned out to be 5.27 µg·h/g, the AUC0-t cortex is 37.7 µg·h/g, the AUC0-t olfactory bulb came to 78.1 µg·h/g and the “plasma Cmax” value was 24.7 µg/mL. In series [5] (rat, 30 mg/kg i.p.), the AUC0-t cerebellum turned out to be 0.80 µg·h/g, the AUC0-t cortex was found to be 0.84 µg·h/g, the AUC0-t olfactory bulb is 1.15 µg·h/g and the AUC0-t plasma was determined as 50.3 µg·h/mL. For the same molecule, in series [5] (rat, 30 mg/kg i.p.), the apparent clearance came to 0.583 L/h/kg, the “apparent volume of distribution” value worked out at 0.82 L/kg and the “peak plasma concentration (Cmax)” value was determined as 49.5 µg/mL. Further, the “elimination t1/2” value in series [5] (rat, 30 mg/kg i.p., plasma) was 59.4 min. Further, on GCP-II (setting [8]), the “inhibition of GCP-II activity in cerebellum” value is 70%±5%, the “inhibition of GCP-II activity in cortex” value is reported as 100% and the “inhibition of GCP-II activity in olfactory bulb” value is given as 100%. In addition, the “inhibition of brain GCP-II enzymatic activity ex-vivo” value at GCP-II (i.n. administration, summary statement) is on record as “complete inhibition”. Moreover, in series [6], the “plasma AUC0-t” value stood at 52.3 µg·h/mL. Moreover, the Kp in series [6] (cerebellum, read-out: brain tissue to plasma ratio based on AUCs, cerebellum) was determined as 0.1. Further, in series [6] (cortex, read-out: brain tissue to plasma ratio based on AUCs, cortex), the Kp came to 0.71. In addition, the Kp in series [6] (olfactory bulb, read-out: brain tissue to plasma ratio based on AUCs, olfactory bulb) amounted to 1.49.
As to “N-[N-[(S)-1,3-dicarboxypropyl]carbamoyl]-L-cysteine [DCMC]”, in series [7], the 50% inhibitory concentration (IC50) was 3.1 nM. Also, in series [4], the concentration in cerebellum came out at 0.20 µg/g, the concentration in cortex is 2.03 µg/g and the “concentration in olfactory bulb” value came to 2.12 µg/g.
